From patent US20110207775A1, “AGENT THAT MODULATES PHYSIOLOGICAL CONDITION OF PESTS, INVOLVED IN INSECT VESICLE-FUSING ATPASE ACTIVITY” (SUMITOMO CHEMICAL COMPANY, LIMITED, priority 2006, published 2011)

Tests used:
[1] = biological target: cotton aphid vesicle-fusing ATPase (Aphis gossypii, UniProt A0A9P0IYS6); test: Inhibition of cotton aphid vesicle-fusing ATPase activity (Kinase-Glo luminescent assay of ATP not hydrolyzed); format: biochemical; conditions: for IC50: 8 concentrations from 100 μM to 0.03 μM, calculated with XLfit, read-out: Activity of inhibiting vesicle-fusing ATPase activity (IC50)
Method: Selection of a compound which modulates a vesicle-fusing ATPase activity was performed in a system for measuring and evaluating the vesicle-fusing ATPase activity, the activity being modulated by adding a test compound to an in vitro reaction system using the cotton aphid vesicle-fusing ATPase prepared in Example 7.
As for a measurement of the cotton aphid vesicle-fusing ATPase activity, after the enzymatic reaction of vesicle-fusing ATPase using ATP as a substrate, an amount of ATP that was not hydrolyzed was measured as the amount of luminescence of luciferase using Kinase-Glo™ Luminescent Kinase Assay (manufactured by Promega), according to a method described in the instruction attached to the kit. The vesicle-fusing ATPase activity was calculated from the amount of luminescence.
For measuring the activity, the activity of the aphid vesicle-fusing ATPase was measured when a test compound dissolved in DMSO was contained to a final concentration of 10 μM. In addition, the activity of the aphid vesicle-fusing ATPase was measured when DMSO was contained in place of a test compound. Then, a ratio (%) of a measured value of the activity of the aphid vesicle-fusing ATPase when a test compound dissolved in DMSO was contained, relative to a measured value of the activity of aphid vesicle-fusing ATPase when DMSO was contained in place of the test compound was calculated, and a value obtained by subtracting the calculated value from 100% was adopted as an inhibition degree (%). The results in each test compound are shown in Table 4 in Example 9 together with results of Example 9.
The activity of aphid vesicle-fusing ATPase was measured when a test compound dissolved in DMSO was contained to a final concentration of each concentration of 100 μM, 30 μM, 10 μM, 3 μM, 1 μM, 0.3 μM, 0.1 μM or 0.03 μM. IC50 (μM) was calculated from the result of each concentration at each test compound using a concentration-dependent test analyzing software XL fit (manufactured by idbs). The results are shown in Table 5 in Example 10 together with results of Example 9.

Aphis gossypii = test: Pesticidal activity test, cotton aphid reared on artificial feed containing test compound; format: in vivo; conditions: same manner as Example 9: 50 ppm in artificial feed, 6 days, controlling value of 30% or more = pesticidal activity
vesicle-fusing ATPase = conditions: ATPase inhibitor; Steel et al. 1999, Morgan et al. 1994; cited from earlier work
[2] = test compound in DMSO at final concentration 10 μM, relative to DMSO control

Chain of cotton aphid vesicle-fusing ATPase (A0A9P0IYS6 1-478): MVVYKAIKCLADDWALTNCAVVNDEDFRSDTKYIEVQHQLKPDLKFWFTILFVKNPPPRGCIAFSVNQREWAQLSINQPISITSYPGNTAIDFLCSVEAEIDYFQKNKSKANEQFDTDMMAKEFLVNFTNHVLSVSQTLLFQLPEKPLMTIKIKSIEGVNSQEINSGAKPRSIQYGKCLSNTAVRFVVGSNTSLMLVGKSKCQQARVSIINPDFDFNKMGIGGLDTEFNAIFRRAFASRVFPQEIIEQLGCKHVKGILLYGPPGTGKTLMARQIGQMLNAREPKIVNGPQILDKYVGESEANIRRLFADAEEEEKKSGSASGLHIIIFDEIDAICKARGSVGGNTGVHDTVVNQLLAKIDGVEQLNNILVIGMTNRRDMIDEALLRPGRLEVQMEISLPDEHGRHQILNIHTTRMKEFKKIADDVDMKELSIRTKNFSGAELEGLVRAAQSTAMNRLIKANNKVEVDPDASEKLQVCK

Compound | IC50 [1] [µM] | Determination result of pesticidal activity (Result of Example 10) (Aphis gossypii) | Activity of inhibiting vesicle-fusing ATPase activity (inhibition degree (%) at 10 μm addition) [1, 2] [%] | Activity against vesicle-fusing ATPase (vesicle-fusing ATPase) | inhibition at 10 µM ([1]; test compound in DMSO at final concentration 10 μM, relative to DMSO control, read-out: Activity of inhibiting vesicle-fusing ATPase activity (inhibition degree (%) at 10 μm addition)) [%]
Cc1ccc2c(c1)C(=O)C1(O)CCN(c3ccccc3)C1=N2 (racemic) [(±)-Blebbistatin] | > 100 | Absence of |  |  | 
Clc1ccc(C(c2ccc(Cl)cc2)n2cc[n+](CC(OCc3ccc(Cl)cc3Cl)c3ccc(Cl)cc3Cl)c2)cc1 (centres unmarked) [Calmidazolium Chloride] | 4.7 |  | 80 |  | 
CCN1C(=O)C=CC1=O [N-ethylmaleimide] |  |  |  | show also activity against vesicle-fusing ATPase | 
CCCCCCCCCCCCC(=O)N1CCCCC1CNC(=O)[C@@H](N)CCCCN.Cl.Cl (some centres unmarked) [NPC15437 dihydrochloride] | 19 |  | 35 |  | 
Cc1ccc(C(=O)Nc2ccc(S(=O)(=O)O)c3cc(S(=O)(=O)O)cc(S(=O)(=O)O)c23)cc1NC(=O)c1cccc(NC(=O)Nc2cccc(C(=O)Nc3cc(C(=O)Nc4ccc(S(=O)(=O)O)c5cc(S(=O)(=O)O)cc(S(=O)(=O)O)c45)ccc3C)c2)c1 [Suramin] | 1.9 |  |  |  | 100
Hypocrellin B | > 100 | Absence of |  |  | 
